Patent US20030139391A1 (priority 2000, published 2003)

Tested on: patients
Experiment: ADAS-cog in earlier study with quicker titration
Format: in vivo, human
Conditions: for ADAS-cog: Actual Drug Mean (SE): raw mean
Experimental: An improvement in tolerability at this dose was seen, but this dose was suboptimal from an efficacy standpoint.
Statistical analysis of the results of the ADAS-cog score is shown below in Table 7. […] This indicated a significant improvement of the patients' cognitive function at this dose level. The treatment with 36 mg/day in this study was terminated at an early point and thus there was insufficient information for a well defined comparison with the placebo.

COc1ccc2c3c1O[C@H]1C[C@@H](O)C=C[C@@]31CCN(C)C2 [GAL, galantamine]
ADAS-cog: Mean estimate GAL-Placebo Difference (18 mg/day): −1.69
ADAS-cog: Z, measure of advantage of galantamine over placebo (18 mg/day): 9.9
ADAS-cog: Actual Drug Mean (SE) (18 mg/day): 0.5 (0.70)
ADAS-cog: Mean estimate GAL-Placebo Difference (24 mg/day): −3.34
ADAS-cog: Z, measure of advantage of galantamine over placebo (24 mg/day): 13.4
ADAS-cog: Actual Drug Mean (SE) (24 mg/day): 0.7 (0.9)
ADAS-cog: Mean estimate GAL-Placebo Difference (36 mg/day): −1.93
ADAS-cog: Z, measure of advantage of galantamine over placebo (36 mg/day): 7.8
ADAS-cog: Actual Drug Mean (SE) (36 mg/day): 1.1 (0.9)
